The record followed here is the METLIN SMRT retention time set (Domingo-Almenara et al. 2019).

The structures appear in SMILES notation.

The data set in a line: gradient 5% acetonitrile 3 min, to 50% in 2 min, to 85% in 15 min, held 3 min, 100 µL/min. The settings on record: column: Zorbax Extend-C18 2.1 x 50 mm; eluents: water / acetonitrile, 0.1% formic acid. In a few lines:
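The system's dead and dwell volumes were 40 μL and 900 μL, with a Zorbax Extend-C18 column (2.1 × 50 mm, 1.8 μm) run at 100 μL/min in water and acetonitrile containing 0.1% formic acid each. Pure standards were analyzed in mixtures of ~100 molecules by HPLC–quadrupole time-of-flight mass spectrometry in positive and negative ionization mode. Retention time was assigned from computationally picked, manually inspected adduct peaks.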
The compound `CC(C)Cc1cc(-c2nn3c(COc4ccc(F)cc4)nnc3s2)n[nH]1` displayed an RP-LC retention time of 936 s.

Consider `CCOC(=O)c1cnc2nc(C)ccc2c1Nc1cc(F)ccc1F`, for which the RP-LC retention time was determined as 726 s. The figure for `CC(=O)Nc1ccc2c(c1)CN(C(=O)c1ccc(C#N)cc1)C(C(=O)N(C)C)C2` (stereo not drawn) is 619 s; for `CSc1ccccc1CN1CCC(CNC(=O)C2(c3ccccc3)CCOCC2)CC1` it is 588 s.

With `O=C(NCCc1csc(-c2cccs2)n1)C1CCN(C(=O)CCC2CCCC2)CC1`, the RP-LC retention time is 901 s. For `CC(C)NC(=O)N1CCN(Cc2nc3cccnc3n2-c2cccc(F)c2)CC1`, the RP-LC retention time was 609 s.

Compound `CCc1ccc(S(=O)(=O)N2CC(COC)C3(CCNCC3)C2)cc1` (stereo not drawn) came in with an RP-LC retention time of 630 s.

`Cc1oc(-c2[nH]ncc2C(=O)N(C)C)cc1S(=O)(=O)Nc1ccc(C(C)C)cc1`: the RP-LC retention time stood at 770 s. `CCOC(=O)CNC(=O)NCc1cccn1Cc1ccccc1` had an RP-LC retention time of 793 s. The figure for `O=C(Cn1cnc2nc(-c3cccnc3)ncc2c1=O)Nc1ccc2c(c1)OCO2` is 826 s; for `OC[C@H]1O[C@@H](c2ccc(Cl)c(Cc3ccc(O[C@H]4CCOC4)cc3)c2)[C@H](O)[C@@H](O)[C@@H]1O` it is 736 s. As for `CCc1noc(NC(C)=O)c1-c1ccc(OC)c(S(=O)(=O)Nc2ccccc2F)c1`, the figure is 763 s. In turn, `Cc1cc(C(=O)Nc2cccc(Cl)c2)nc2cc(-c3ccco3)nn12` returned an RP-LC retention time of 1020 s. `CCOCCn1c(-c2ccccc2Cl)nc2ccccc21` yielded an RP-LC retention time of 707 s.

`O=C(CN1CCN(Cc2ccc(F)cc2)C(=O)C1=O)NCc1ccc2c(c1)OCO2` registered an RP-LC retention time of 780 s.

For `O=C(Cn1ccc2sccc2c1=O)NCc1ccccc1F`, the RP-LC retention time was 785 s. As to `Cc1cc(C)cc(Nc2c(-c3ccc(N4CCOCC4)cc3)nc3ncccn23)c1`, the RP-LC retention time is 719 s. Compound `Cc1ccccc1-c1nc2cnccn2c1NCCC(=O)NCc1cc(F)cc(F)c1` came in with an RP-LC retention time of 693 s. The figure for `CCC(=O)N1c2ccc(S(=O)(=O)CCC(=O)NCc3ccc(N(C)C)cc3)cc2CC1C` (stereo not drawn) is 617 s. As for `COc1ccc(-c2cn3ccn(-c4ccc(F)cc4)c(=O)c3n2)cc1OC`, the figure is 738 s. Compound `CCn1cc(CN2CCCCC2c2nncn2Cc2ccccc2)cn1` (stereo not drawn) gave an RP-LC retention time of 575 s. The figure for `CCCn1c(=O)c2sc(N3CCCC3)nc2n(CC(=O)NCc2cccs2)c1=O` is 755 s; for `Cc1nc2ccc(N)nc2nc1C` it is 594 s; for `CCOc1cc(Cl)c(S(=O)(=O)Nc2cccnc2)cc1Cl` it is 717 s. As for `Cc1cc([N+](=O)[O-])nn1CC(=O)Nc1c(F)cc(F)cc1Br`, the figure is 762 s; as for `O=C(c1cnccn1)N1CCN(c2nc(-c3ccc(Cl)cc3)no2)CC1`, 828 s. For `O=C(C1CC1)N1CCCn2nc(-c3cccc(F)c3)cc2C1`, the RP-LC retention time was determined as 784 s.

`O=C(NCC(=O)N1CCc2ccccc21)c1ccc(=O)[nH]c1` returned an RP-LC retention time of 599 s. As for `Cc1cc(NC(=O)C(=O)NCC2(c3ccc(F)cc3)CCOCC2)no1`, the figure is 736 s. As for `COCc1cc2nn(CC(=O)Nc3ccc(F)cc3)c(=O)n2c(-c2ccccc2)n1`, the figure is 903 s; as for `COCCN1CC2(CCN(S(=O)(=O)c3cc(F)cc(F)c3)CC2)C1c1ccccc1` (stereo not drawn), 718 s.

Compound `CCC(=O)N1CCOc2ccc(NC(=O)C3CC3)cc2C1` returned an RP-LC retention time of 674 s.

`COc1ccc2c(OCc3nnc4ccc(-c5ccccc5)nn34)ccnc2c1` registered an RP-LC retention time of 690 s.

`O=C(NCCc1csc(-c2ccccc2)n1)C1CCN(S(=O)(=O)c2ccc(F)cc2)CC1` gave an RP-LC retention time of 928 s.

The compound `CCc1cc(=O)n(CC(=O)N(CC)c2ccccc2)c(N2CCOCC2)n1` showed an RP-LC retention time of 747 s. For `O=C(NC1CCCC1)C1CCN(C(=O)c2ccc(-c3noc(C4CC4)n3)cc2)CC1`, the RP-LC retention time was found to be 813 s. As for `COc1cccc(C(=O)Nc2nc(-c3ccc4c(c3)NC(=O)CO4)c(C)s2)c1`, the figure is 877 s; as for `Cc1ccc(C(=O)N2CCN(c3ccc(=O)n(-c4cccc(Cl)c4)n3)CC2)s1`, 891 s; as for `Cc1ccc(-c2cc3n(n2)CCCN(C(=O)CCC(=O)c2ccc(F)cc2)C3)cc1`, 943 s. The figure for `COc1ccc(NC(=O)C2CCCN(c3nccnc3Oc3ccccc3)C2)cc1Cl` (stereo not drawn) is 1050 s; for `COc1ccc(NC(=O)C2CCCN(c3nccnc3Sc3ccccc3)C2)cc1F` (stereo not drawn) it is 1050 s; for `CCCn1cnc2c(Sc3c([N+](=O)[O-])ncn3C)nc(N)nc21` it is 681 s. The figure for `CCc1cccc(NC(=O)Cn2nc3c(Sc4ccccc4)nccn3c2=O)c1` is 1010 s; for `CCN1C(=O)C2CC3(CCN(C(=O)c4cccs4)CC3)CN2C1=O` (stereo not drawn) it is 701 s. In turn, `O=C(Nc1cccc(-c2cn3cccnc3n2)c1)c1cccc(Br)c1` returned an RP-LC retention time of 728 s. As for `C[C@@H]1O[C@@H](O[C@H]2C(Oc3cc(O)c4c(=O)c(O)c(-c5ccc(O)cc5)oc4c3)O[C@H](CO)[C@@H](O)[C@@H]2O)[C@H](O)[C@H](O)[C@H]1O` (stereo partly drawn), the figure is 677 s; as for `Cn1ncc2c(N3CCCC3)nc(C(=O)NCc3cccnc3)nc21`, 562 s.

Turning to `CC(=O)Oc1ccc2ccc(=O)oc2c1OC(C)=O`, the RP-LC retention time came to 856 s. `CCCCn1nc2c(S(=O)(=O)N3CCCCC3)cccn2c1=O` had an RP-LC retention time of 831 s.

For the compound `O=C(NC1CC1)C1CCN(c2nc3ccc(-c4ccsc4)nc3s2)CC1`, the RP-LC retention time turned out to be 809 s. On to `Cc1c(Cl)cccc1N1CCn2c1nc1c2c(=O)n(CC(=O)O)c(=O)n1C`, for which the RP-LC retention time was 719 s.

Turning to `Cn1c(=O)c2c(-c3ccc(F)cc3)c(C#N)c(N)nc2n(C)c1=O`, the RP-LC retention time was found to be 757 s. The figure for `Cc1nn(Cc2ccc(C(=O)N3CCN(c4ccccn4)CC3)cc2)c(C)c1S(=O)(=O)N(C)C` is 606 s; for `COc1cc(Nc2c(C#N)cnc3cc(OCCCN4CCN(C)CC4)c(OC)cc23)c(Cl)cc1Cl` it is 675 s.

As for `Cc1cccc(CNC(=O)C2c3ccccc3CC(=O)N2C(C)C)c1` (stereo not drawn), the RP-LC retention time worked out at 825 s. As for `Cc1nnc2c(=O)n(CC(=O)NC(C)c3ccccc3)c3cccnc3n12` (stereo not drawn), the figure is 988 s. As for `Cc1cc(S(=O)(=O)N2C[C@@H](F)C[C@H]2C(=O)N2CCCCC2)ccc1Cl`, the figure is 885 s; as for `CCCN(C(=O)c1ccco1)c1nc(-c2ccc(C)cc2)cs1`, 1390 s; as for `Cc1nc(Nc2ncc3c(n2)CCCC3=O)nc2c(C)cccc12`, 620 s.

`O=C(Nc1cccc(F)c1)c1csc(-c2ccc(N3CCCC3)nc2)n1` came in with an RP-LC retention time of 772 s.

`Cc1cc(=O)n2c3c(c4c(cc13)c(CN(C)C)cc(=O)n4C)OC2` gave an RP-LC retention time of 601 s. The figure for `O=C1NCCCCCN(C(=O)c2ccsc2)[C@H]2CCC[C@@H]12` is 692 s; for `CCOC(=O)CC(=O)Nc1ccc(-c2nc(-c3cc(C)ccc3C)co2)cc1` it is 1110 s. As for `Cc1ccc(OCc2ccc(-c3nc(C#N)c(NCCN(C)C)o3)o2)cc1`, the figure is 709 s; as for `CC(NC(=O)C1CC(=O)N(c2ccc3c(c2)CCN3C(=O)C2CC2)C1)c1ccccc1` (stereo not drawn), 740 s; as for `C=C[C@@]1(C)CC(=O)[C@]2(O)[C@@]3(C)[C@H](O)CCC(C)(C)[C@@H]3[C@H](O)[C@H](OC(C)=O)[C@@]2(C)O1`, 1040 s. Compound `Cc1cc(C)cc(-c2nc(-c3cccc(-c4ccnn4C)c3)no2)c1` yielded an RP-LC retention time of 1340 s. For the compound `CCn1cnc2ccc(-c3noc(Cc4ccc(F)cc4)n3)cc21`, the RP-LC retention time was 742 s. The figure for `COc1ccc(-c2noc(-c3cccnc3N3CCN(c4ccccc4)CC3)n2)cc1` is 1290 s; for `Cc1cc(C)cc(S(=O)(=O)N2CCc3c(c(-c4nnc(-c5ccccc5)o4)nn3C)C2)c1` it is 1020 s; for `COC(=O)c1cc(OCC(=O)Nc2ccc(Cl)cc2)c2cc(OC)ccc2n1` it is 899 s. `Cc1nc2ccccc2n(CCC(=O)NCCc2c[nH]c3ccc(Cl)cc23)c1=O` had an RP-LC retention time of 795 s. The figure for `O=C(Cc1c(F)cccc1Cl)N1C[C@@H]2C[C@H]1C[C@@H]2NS(=O)(=O)c1cccs1` is 766 s; for `Cc1cc(-c2nnc(-c3ccc(F)cc3)o2)c(C)n1CC(=O)N(C)Cc1ccccc1` it is 1000 s. The figure for `CCC(CN1CCOCC1)NC(=O)c1c2c(nc3ccccc13)C(=O)N(C1CCCCC1)C2` (stereo not drawn) is 610 s. The figure for `COC(=O)c1cc(S(=O)(=O)N2CCCC2C(=O)Nc2cccc(C)n2)cn1C` (stereo not drawn) is 773 s.

`CCC(=O)n1nc(-c2ccccc2C)nc1N` yielded an RP-LC retention time of 875 s. The figure for `COc1ccc(C2(CNC(=O)c3cc(-c4ccccc4)n[nH]3)CCOCC2)cc1` is 749 s.
